Here are results for 14 compounds from patent US9212164B2, “Pesticidal compositions and processes related thereto” (Dow AgroSciences LLC, priority 2012, dated 2015).

Assay type in all cases: in vivo
For assay [1], the system named is Beet Armyworm (BAW) (Spodoptera exigua). Kind of assay: Bioassays on BAW, 128-well diet tray assay. The conditions noted are these: Spodoptera exigua, 168 h; 50 μg/cm^2 on artificial diet, second instar larvae, five to seven days, 25° C.; read-out: BAW Rating (percent mortality). An outline of the steps:
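Second-instar larvae (one to five per well) placed on artificial diet treated with 50 μg/cm^2 compound in 90:10 acetone-water, dried; eight wells per compound. Held at 25 °C, 14:10 light-dark, five to seven days; percent mortality per well averaged over the eight wells.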

Assay [2] concerns Cabbage Looper (CL) (Trichoplusia ni). Briefly: Bioassays on CL, 128-well diet tray assay. The settings on record: 168 h, 50 μg/cm^2 on artificial diet, second instar larvae, five to seven days, 25° C., read-out: CL Rating (percent mortality). An outline of the steps: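 Second-instar larvae (one to five per well) placed on artificial diet treated with 50 μg/cm^2 compound in acetone-water and dried, eight wells per compound. Held at 25 °C, 14:10 light-dark, for five to seven days. Percent mortality scored per well and averaged.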

Assay [3] relates to Green Peach Aphid (GPA) (Myzus persicae). Briefly: Bioassays on Green Peach Aphid, foliar spray on cabbage seedlings. The conditions noted are these: 200 ppm spray on cabbage seedlings, graded after three days. The source says: GPA is the most significant aphid pest of peach trees, causing decreased growth, shriveling of the leaves, and the death of various tissues. It is also hazardous because it acts as a vector for the transport of plant viruses, such as potato virus Y and potato leafroll virus to members of the nightshade/potato family Solanaceae, and various mosaic viruses to many other food crops. GPA attacks such plants as broccoli, burdock, cabbage, carrot, cauliflower, daikon, eggplant, green beans, lettuce, macadamia, papaya, peppers, sweet potatoes, tomatoes, watercress, and zucchini, among other plants. GPA also attacks many ornamental crops such as carnation, chrysanthemum, flowering white cabbage, poinsettia, and roses. GPA has developed resistance to many pesticides.
Certain molecules disclosed in this document were tested against GPA using procedures described in the following example. In the reporting of the results, the “GPA Rating Table” was used (See Table Section).
Cabbage seedlings grown in 3-inch pots, with 2-3 small (3-5 cm) true leaves, were used as test substrate. The seedlings were infested with 20-50 GPA (wingless adult and nymph stages) one day prior to chemical application. […] Percent Control was measured by using Abbott's correction formula (W. S. Abbott, “A Method of Computing the Effectiveness of an Insecticide” J. Econ. Entomol. 18 (1925), pp. 265-267) as follows. […]

In general, mortality refers to the share of the test organisms that died. Turning to `O=C(NC1(C(=O)NCC(F)(F)F)CC1)c1ccc(/C=C/C(c2cc(Cl)c(Cl)c(Cl)c2)C(F)(F)F)cc1I` (stereo not drawn) [FA2], the mortality at 50 µg/cm2 in assay [1] and in assay [2] was 50 to 100% each time. For the same compound, in assay [3], the “GPA Rating (corrected % control)” value is “B (More than 0 - Less than 80)”.
As to `O=C(NC1(C(=O)NCC(F)(F)F)CCC1)c1ccc(/C=C/C(c2cc(Cl)c(Cl)c(Cl)c2)C(F)(F)F)cc1Br` (stereo not drawn) [Compound F5], the mortality at 50 µg/cm2 in assay [1] and in assay [2] was 50 to 100% in each case. In assay [3], the “GPA Rating (corrected % control)” value was “B (More than 0 - Less than 80)”.
Take `Cc1cc(C(/C=C/c2ccc(C(=O)NC3(C(=O)NCC(F)(F)F)CC3)c(Br)c2)C(F)(F)F)ccc1Cl` (stereo not drawn) [Compound P243]: the mortality at 50 µg/cm2 in assay [1] and in assay [2] was 50 to 100% in each case.
As to `O=C(NC1(C(=O)NCC(F)(F)F)CC1)c1ccc(/C=C/C(c2ccc(F)c(F)c2F)C(F)(F)F)cc1C(F)(F)F` (stereo not drawn) [Compound P65], the mortality at 50 µg/cm2 in assay [1] and in assay [2] was 50 to 100% each time.
Consider `CCN(Cc1ccccc1)C(=O)C1(NC(=O)c2ccc(/C=C/C(c3cc(Cl)c(Cl)c(Cl)c3)C(F)(F)F)cc2Br)CC1` (stereo not drawn) [FA45], for which the mortality at 50 µg/cm2 in assay [1] and in assay [2] was 50 to 100% throughout.
On to `O=C(NC1(C(=O)NCC(F)(F)F)CC1)c1ccc(/C=C/C(c2cc(Cl)c(Cl)cc2Cl)C(F)(F)F)cc1C(F)(F)F` (stereo not drawn) [Compound P110], for which the mortality at 50 µg/cm2 in assay [1] and in assay [2] was 50 to 100% each time.
As to `Cc1cc(/C=C/C(c2cc(Cl)c(Cl)c(Cl)c2)C(F)(F)F)ccc1C(=O)NC1(C(=S)NCC(F)(F)F)CC1` (stereo not drawn) [Compound P1011], the mortality at 50 µg/cm2 in assay [1] and in assay [2] was 50 to 100% each time.
Take `O=C(NC1(C(=O)NCC(F)(F)F)CC1)c1ccc(/C=C/C(c2cc(Cl)c(Cl)c(Cl)c2)C(F)(F)F)cc1Cl` (stereo not drawn) [Compound F1, (E)-2-Chloro-4-(4,4,4-trifluoro-3-(3,4,5-trichlorophenyl)but-1-enyl)-N-(1-(2,2,2-trifluoroethylcarbamoyl)cyclopropyl)benzamide]: the mortality at 50 µg/cm2 in assay [1] and in assay [2] was 50 to 100% each time.
Take `O=C(NC1(C(=O)NCC(F)F)CC1)c1ccc(/C=C/C(c2cc(Br)cc(Br)c2)C(F)(F)F)cc1C(F)(F)F` (stereo not drawn) [Compound P1195]: the mortality at 50 µg/cm2 in assay [1] and in assay [2] was 50 to 100% in each case.
As to `O=C(NC1(C(=O)NCC(F)(F)F)CC1)c1ccc(/C=C/C(c2ccc(Cl)c(Cl)c2)C(F)(F)F)cc1C(F)(F)F` (stereo not drawn) [Compound P1095], the mortality at 50 µg/cm2 in assay [1] and in assay [2] was 50 to 100% throughout.
Turning to `CCc1cc(Cl)cc(C(/C=C/c2ccc(C(=O)NC3(C(=O)NCC(F)(F)F)CC3)c(C(F)(F)F)c2)C(F)(F)F)c1` (stereo not drawn) [FA10], the mortality at 50 µg/cm2 in assay [1] and in assay [2] was 50 to 100% throughout.
As for `O=C(NC1(C(=S)NCC(F)(F)F)CC1)c1ccc(/C=C/C(c2cc(Cl)c(Cl)c(Cl)c2)C(F)(F)F)cc1Br` (stereo not drawn) [Compound P1009], the mortality at 50 µg/cm2 in assay [1] and in assay [2] was 50 to 100% throughout.
As for `COCCN(C)C(=O)C1(NC(=O)c2ccc(/C=C/C(c3cc(Cl)c(Cl)c(Cl)c3)C(F)(F)F)cc2Br)CC1` (stereo not drawn) [FA43], the mortality at 50 µg/cm2 in assay [1] and in assay [2] was 50 to 100% each time.
On to `O=C(NC1(C(=O)NCC(F)(F)F)CC1)c1ccc(/C=C/C(c2cc(Cl)c(Br)c(Cl)c2)C(F)(F)F)cc1C(F)(F)F` (stereo not drawn) [FA8], for which the mortality at 50 µg/cm2 in assay [1] and in assay [2] was 50 to 100% throughout.
